Measurements from US20030181507A1, “Use of 3-substituted oxindole derivatives as kcnq potassium channel modulators” (priority 2000, published 2003).

Key:
[1] = molecular target: T1, KCNQ4 (Homo sapiens, UniProt P56696); experiment: Whole-cell voltage clamp of KCNQ4 stably expressed in HEK-293 cells; type: cell-based
T1 construct: expressed in transfected cells; host or cells: HEK-293
Experimental: (§1) KCNQ4 and KCNQ5 was sub-cloned into the mammalian expression vector pNS1n (NeuroSearch), a custom-designed derivative of pcDNA3Neo (InVitrogen). HEK-293 cells (American Type Culture Collection) were grown in DMEM (Life Technologies) supplemented with 10% FCS (Life Technologies) at 37° C. in 5% CO2.
(§2) One day prior to transfection, 10^6 cells were plated in a cell culture T25 flask (Nunc). Cells were transfected with 2.5 μg of the plasmid pNS1n_KCNQ4 or with 2.5 μg of the plasmid pNS1n_KCNQ5 using Lipofectamine (Life Technologies) according to the manufacturer's instructions. Cells transfected with pNS1n_KCNQ4 or pNS1n_KCNQ5 were selected in media supplemented with 0.5 mg/ml geneticin (G418; Life Technologies).
Single clones were picked and propagated in selection media for five passages after which they were considered stable. Following the cells were cultured in regular medium without selection agent. […]
(§3) Whole-cell currents were recorded using a HEKA EPC-9 amplifier and borosilicate glass micropipettes with tip resistances of 1.5-3 MΩ. […]
The currents were measured in voltage mode using the whole-cell configuration of the patch clamp technique. […]
The experimental conditions was as described above, but in this experiment the depolarising potential ranged from −120 mV to +40 mV before a step back to −120 mV where brief inward tail currents were recorded. […]

[2] = molecular target: T1, KCNQ4; experiment: Membrane potential in current clamp mode, KCNQ4 expressing cell; type: cell-based; settings: FIG. 3; for membrane potential after addition of compound: 10 μM in bath solution, whole cell, initial resting potential around −60 mV, sequential additions to same cell
Experimental: as §1, §2
(§4) Single clones were picked and propagated in selection media for five passages after which they were considered stable. Following the cells were cultured in regular medium without selection agent.
Expression of functional KCNQ4 channels or KCNQ5 channels was verified by patch-clamp measurements.
Transfected cells were cultured on glass cover slips (Ø=3 mm), which were transferred to a small recording chamber. The chamber was perfused with extracellular solutions at a rate of 1 ml/min giving rise to full exchange of the chamber volume (15 μl) each second.
Whole-cell currents were recorded using a HEKA EPC-9 amplifier and borosilicate glass micropipettes with tip resistances of 1.5-3 MΩ. Series resistances were below 5 MΩ, mostly stayed constant during the experiment and were compensated by 70%. The currents were not leak-subtracted.
All experiments were performed at room temperature (21-25° C.). Igor software (WaveMetrics, Lake Oswego, Oreg.) was used for the analysis.
The bath solution consisted of 144 mM NaCl, 4 mM KCl, 2 mM CaCl2, 1 mM MgCl2 and 10 mM HEPES (pH adjusted to 7.4). The pipette solution consisted of 144 mM KCl, 5.4 mM CaCl2, 1.8 mM MgCl2, 4 mM NaATP, 0.4 mM GTP, 10 mM EGTA and 10 mM HEPES (pH adjusted to 7.2).
The membrane potential was measured in current clamp mode using the whole cell configuration of the patch clamp technique. A resting membrane potential of around −60 mV was initially recorded from this cell and the addition of 10 μM Compound 1 to the bath solution induced a hyper-polarisation of the membrane potential to −83 mV.
After washout of Compound 1, the membrane potential returned to −69 mV, and subsequent addition of 10 μM Retigabine, a KCNQ activator, induced a faster but smaller hyperpolarisation to a membrane potential of −76 mV.
The compounds were present in the bath solution during the times indicated by the bars.

[3] = molecular target: T2, KCNQ5 (Homo sapiens, UniProt Q9NR82); experiment: Whole-cell voltage clamp of KCNQ5 stably expressed in HEK-293 cells; type: cell-based; settings: 10 μM, holding −90 mV, step to −30 mV
T2 construct: expressed in transfected cells; host or cells: HEK-293
Experimental: as §1, §2, §4
Expression of functional KCNQ4 channels or KCNQ5 channels was verified by patch-clamp measurements. […]
as §3
The currents were measured from a cell patch clamped in the whole-cell voltage clamp configuration. […]
The currents recorded in the absence (control) and in the presence of 10 μM of the reference M current blocker XE-991 is shown in the panel to the left.

[4] = tested on: KCNQ channels; settings: background statement; cited from earlier work
[5] = molecular target: BK channels (Homo sapiens, UniProt Q12791); settings: background statement; cited from earlier work
Chain of BK channels (Q12791 whole entry): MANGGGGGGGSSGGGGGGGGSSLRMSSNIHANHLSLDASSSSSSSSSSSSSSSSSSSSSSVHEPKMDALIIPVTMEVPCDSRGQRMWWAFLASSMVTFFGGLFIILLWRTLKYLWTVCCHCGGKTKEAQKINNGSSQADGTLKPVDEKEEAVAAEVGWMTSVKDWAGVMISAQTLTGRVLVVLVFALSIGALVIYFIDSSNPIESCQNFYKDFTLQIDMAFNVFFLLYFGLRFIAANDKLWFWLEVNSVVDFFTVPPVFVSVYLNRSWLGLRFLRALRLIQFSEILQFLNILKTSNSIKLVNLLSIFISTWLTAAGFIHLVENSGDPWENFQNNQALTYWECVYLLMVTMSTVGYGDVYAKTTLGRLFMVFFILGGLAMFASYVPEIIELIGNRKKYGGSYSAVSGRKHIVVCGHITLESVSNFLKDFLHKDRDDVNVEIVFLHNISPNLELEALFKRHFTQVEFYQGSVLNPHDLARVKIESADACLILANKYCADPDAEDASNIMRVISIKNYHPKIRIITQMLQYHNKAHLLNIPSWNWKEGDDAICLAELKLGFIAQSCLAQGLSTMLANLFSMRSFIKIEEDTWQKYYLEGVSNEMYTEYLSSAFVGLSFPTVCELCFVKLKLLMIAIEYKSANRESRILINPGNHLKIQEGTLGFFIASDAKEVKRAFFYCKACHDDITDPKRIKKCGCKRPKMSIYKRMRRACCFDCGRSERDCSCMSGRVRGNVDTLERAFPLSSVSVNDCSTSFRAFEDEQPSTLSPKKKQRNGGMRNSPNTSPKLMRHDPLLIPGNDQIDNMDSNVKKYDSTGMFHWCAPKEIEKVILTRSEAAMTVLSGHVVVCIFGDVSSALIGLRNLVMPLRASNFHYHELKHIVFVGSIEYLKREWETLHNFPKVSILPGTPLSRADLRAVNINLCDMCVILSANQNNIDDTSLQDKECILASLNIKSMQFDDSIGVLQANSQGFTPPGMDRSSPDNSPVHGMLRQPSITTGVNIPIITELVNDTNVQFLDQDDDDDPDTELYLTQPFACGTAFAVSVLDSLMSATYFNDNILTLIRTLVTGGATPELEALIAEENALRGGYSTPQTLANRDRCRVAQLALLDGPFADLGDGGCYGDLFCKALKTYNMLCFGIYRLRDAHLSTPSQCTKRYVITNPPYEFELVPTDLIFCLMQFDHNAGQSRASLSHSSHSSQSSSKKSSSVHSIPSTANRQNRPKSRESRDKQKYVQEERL

| SMILES | changes in IV relation and activation curve ([1]; 3 μM, depolarising potential −120 mV to +40 mV, FIG. 2) | activation of KCNQ4 currents ([1]; 0.1, 0.3, 1, 3 and 10 μM, holding −90 mV, step to −40 mV, HEK-293 cells, FIG. 1) | membrane potential after addition of compound [2] | membrane potential after washout of compound ([2]; after washout of 10 μM compound) | effect on KCNQ5 currents ([3]; after washout of XE-991, FIG. 4) | effect on KCNQ channels [4] | effect on BK channels [5] | return of membrane potential upon washout ([2]; after 10 μM compound) | reversibility of inhibition of KCNQ5 currents ([3]; FIG. 4) |
| --- | --- | --- | --- | --- | --- | --- | --- | --- | --- |
| COc1ccc(Cl)cc1C1(F)C(=O)Nc2cc(C(F)(F)F)ccc21 (racemic) [Compound 1, (±)-3-(5-chloro-2-methoxyphenyl)-1,3-dihydro-3-fluoro-6-(trifluoromethyl)-2H-indol-2-one] | changes in IV relation and activation curve | dose-dependent activation | −83 mV | −69 mV | activation |  |  |  |  |
| O=C1N(c2ccccc2)c2ccccc2C1(Cc1ccncc1)Cc1ccncc1 [Linopiridine] |  |  |  |  |  | potent KCNQ inhibiting compounds | no effect |  |  |
| O=C1c2ccccc2C(Cc2ccncc2)(Cc2ccncc2)c2ccccc21 [XE-991] |  |  | −12 mV |  |  | potent KCNQ inhibiting compounds | no effect | returned very slowly towards the control level | not fully reversible |
